# Laboratory results published in patent US20100266577A1, “Method of Cancer Treatment with Antagonists of FAS Inhibitors” (priority 2007, published 2010).
# Tested on: BJAB cells
# Test: Fc:FasL-induced apoptosis with CD74-derived peptides
# Format: cell-based
# Conditions: after 24 hours, compared to buffer- and unrelated peptide-treated cells
# Description: A membrane proximal region of CD74-derived peptides disrupts CD74-Fas complexes. […] The CH-11 binding site was mapped to the membrane-proximal CRD3-domain of Fas.^10 We thus predicted that the membrane-proximal region of CD74 may be involved in the interaction with Fas. We designed four 20 amino acids long peptides with five amino acid overlaps spanning this region of CD74 (FIG. 16A).
# The goal of this example was to design and identify peptides that compete with the Fas-CD74 complex in order to enhance Fas-mediated apoptosis. […] In order to better define competing peptides and peptides with apoptosis activity, we tested shorter peptides. We incubated seven amino acid length peptides (7mer 1, 7mer 2, and 7mer3) with BJAB cells and then stimulated apoptosis using recombinant Fas ligand (Fc:FasL).
row,Substance,Fas ligand-induced apoptosis (7mer peptides)
1,QQQGRLD [7mer 1],significantly enhanced levels of Fas ligand-induced apoptosis
2,GRLDKLT [7mer 2],significantly enhanced levels of Fas ligand-induced apoptosis
3,DKLTVTS [7mer 3],significantly enhanced levels of Fas ligand-induced apoptosis
